This note sets out measurements from PMC12679585, “Design, synthesis, and characterization of novel 5-ethylsulfonyl-indazole-3-carboxamides as dual VEGFR-2 and EGFR inhibitors: apoptotic antiproliferative and immunomodulatory evaluations” (RSC Advances, 2025).

Data set [1] in a line: Cell viability assay (MTT) on normal mammary epithelial cells. It counts as cell-based. Conditions: human, MCF-10A normal mammary gland epithelial cells, four days. How it is done: This test assesses the safety of new compounds 8a–l on normal cell lines. The efficacy of 8a–l was tested on the normal human mammary gland epithelial cell line MCF-10A. MCF-10A cells were incubated with 50 µM of each tested compound for four days. Cell viability was assessed using the MTT assay.[11,48] Appendix A has extra experimental details.
This assay evaluates the impact of novel compounds 8a–l on normal cell lines to determine their safety, an essential consideration in drug discovery. The efficacy of the examined compounds was evaluated utilizing the normal human mammary gland epithelial cell line MCF-10A. […]
4.2. Biological evaluation
4.2.1 Cell Viability assay (MTT assay)
MTT assay was performed to investigate the effect of the synthesized compounds on mammary epithelial cells (MCF-10A). The cells were propagated in medium consisting of Ham's F-12 medium/ Dulbecco's modified Eagle's medium (DMEM) (1:1) supplemented with 10% foetal calf serum (GIBCO, UK), 2 mM glutamine, insulin (10 μg/mL), hydrocortisone (500 ng/mL) and epidermal growth factor (20 ng/mL). Trypsin ethylenediamine tetra acetic acid (EDTA) was used to passage the cells after every 2-3 days. 96-well flat-bottomed cell culture plates were used to seed the cells at a density of 10^4 cells mL-1. The medium was aspirated from all the wells of culture plates after 24 h followed by the addition of synthesized compounds (in 200 μL medium to yield a final concentration of 0.1% (v/v) dimethyl sulfoxide) into individual wells of the plates.
Four wells were designated to a single compound. The plates were allowed to incubate at 37°C for 96 h. Afterwards, the medium was aspirated and 3-[4,5-dimethylthiazol-2-yl]-2,5-diphenyltetrazolium bromide (MTT) (0.4 mg/mL) in medium was added to each well and subsequently incubated for 3 h. The medium was aspirated and 150 μL dimethyl sulfoxide (DMSO) was added to each well. The plates were vortexed followed by the measurement of absorbance at 540 nm on a microplate reader. […]

For data set [2], the system named is Bcl-2. The experiment in a line: Apoptotic markers assay: Bcl-2 level in HCT-116 cells. It counts as cell-based, human. The source says:
(§1) Appendix A gives more details.
(§2) Apoptosis dysregulation is a hallmark of human cancer, resulting in uncontrolled proliferation, insufficient response to treatments, and the formation of drug-resistant cells.[60] As a result, current anticancer therapies are recognized for their ability to induce apoptosis in cancer cells via both extrinsic and intrinsic routes.[56]
The Bcl-2 protein family, comprising pro-apoptotic proteins (Bax) and anti-apoptotic proteins (Bcl-2), primarily regulates apoptosis. […] As a result, we evaluated the level of Bcl-2 and Bax proteins in HCT-116 colorectal cancer cells subjected to treatments with compounds 8g and 8h. […]
wash solution to every well. Repeat the wash 4 more times for a total of 5 washes. After the final wash, empty or aspirate the wells and firmly tap the plate on a lint free paper towel to remove any remaining wash buffer. Pipet 100 μL of yellow Antibody into each well, except the Blank. Seal the plate and incubate at room temperature on a plate shaker for 1 hour at ~500 rpm. Empty the contents of the wells and wash by adding 400 μL of […]
towel to remove any remaining wash buffer. Add 100 μL of blue Conjugate to each […]
for 30 minutes at ~500 rpm. Empty the contents of the wells and wash by adding 400 μL of wash solution to every well. Repeat the wash 4 more times for a total of 5 washes.
After the final wash, empty or aspirate the wells and firmly tap the plate on a lint free paper towel to remove any remaining wash buffer. Pipet 100 μL of Substrate Solution into each well. Incubate for 30 minutes at room temperature on a plate shaker at ~500 rpm. Pipet 100 μL Stop Solution to each well. Blank the plate reader against the Blank wells, read the optical density at 450 nm. Calculate the average net Optical Density (OD) bound for each standard and sample by subtracting the average Blank OD from the average OD for each standard and sample. […]
Approximate a straight line through the points. The concentration of Bax in the unknowns can be determined by interpolation. […]

Data set [3] concerns Caspase-8. The data set can be described thus: Caspase-8 activation assay in HCT-116 cells. To be noted: for Caspase-8 fold change: relative to control.
The target of data set [4] is EGFR (Homo sapiens, UniProt P00533). The data set can be described thus: EGFR inhibitory assay (EGFR-TK assay).
Chain of EGFR (P00533 669-1210): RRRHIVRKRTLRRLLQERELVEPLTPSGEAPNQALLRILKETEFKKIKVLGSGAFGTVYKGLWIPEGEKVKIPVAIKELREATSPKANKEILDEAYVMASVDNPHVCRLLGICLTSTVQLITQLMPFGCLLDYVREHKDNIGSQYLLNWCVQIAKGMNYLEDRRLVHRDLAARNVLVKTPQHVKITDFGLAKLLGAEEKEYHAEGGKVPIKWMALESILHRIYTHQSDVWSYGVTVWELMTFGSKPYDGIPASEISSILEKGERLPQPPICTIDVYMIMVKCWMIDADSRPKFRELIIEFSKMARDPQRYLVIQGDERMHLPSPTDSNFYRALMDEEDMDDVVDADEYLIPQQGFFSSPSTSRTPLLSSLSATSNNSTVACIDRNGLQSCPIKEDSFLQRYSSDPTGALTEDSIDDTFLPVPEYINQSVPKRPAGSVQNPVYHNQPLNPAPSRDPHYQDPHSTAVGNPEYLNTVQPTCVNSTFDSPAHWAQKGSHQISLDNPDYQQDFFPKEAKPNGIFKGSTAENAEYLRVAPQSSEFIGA
Procedure: Erlotinib was used as positive control in the assay.
To record autophosphorylation level, EGFR kinase assay was carried out on the basis of DELFIA/Time-Resolved Fluorometry. The compounds were first dissolved in DMSO
absolute, subsequent to dilution to appropriate concentration using HEPES (25 mM) at
pH 7.4. Each compound (10 μL) was incubated with recombinant enzyme (10 μL, 5 ng for EGFR, 1:80 dilution in 100 mM HEPES) for 10 min at 25 °C, subsequent to the addition of 5X buffer (10 μL, containing 2 mM MnCl2, 100 μM Na3VO4, 20 mM HEPES and 1 mM DTT) and ATP-MgCl2 (20 μL, containing 0.1 mM ATP and 50 mM MgCl2) and incubation for 1h. The negative and positive controls were included in each plate by the incubation of enzyme either with or without ATP-MgCl2. The liquid was removed after incubation and the plates were washed thrice using a wash buffer.
Europium-tagged antiphosphotyrosine antibody (75 μL, 400 ng) was added to each well followed by incubation of 1h and then washing of the plates using buffer. The enhancement solution was added to each well and the signal was recorded at excitation
The autophosphorylation percentage inhibition by compounds was calculated using the following equation:
Using the curves of percentage inhibition of eight concentrations of each compound,
were from EGFR because the enzyme preparation contained low impurities.
Data set [5] deals with WI-38. The data set can be described thus: In vitro cytotoxicity against normal human cells (MTT). Conditions: for Selectivity index (SI), HCT-116: WI-38 versus HCT-116; for Selectivity index (SI), MCF-7: WI-38 versus MCF-7; for IC50: normal human diploid cell line WI-38, MTT. It is filed as cell-based. The source says: The results indicated a favorable safety margin for the evaluated compounds about normal cells, Table 5.

Data set [6] has as its system p53. The data set can be described thus: Apoptotic markers assay: p53 level in HCT-116 cells. It is filed as cell-based, human.
Excerpt: as §1, §2
The ability of p53 overexpression to trigger apoptosis may clarify the common inactivation of p53 enzymes by cancer cells during transformation.[63]

Data set [7] has as its system Caspase-9. The data set can be described thus: Caspase-9 activation assay in HCT-116 cells. To be noted: for Caspase-9 fold change: relative to control.
In data set [8] the test system is HCT-116 and MCF-7. The data set can be described thus: Antiproliferative assay, average over the two cell lines. It counts as cell-based. To be noted: Homo sapiens; average of HCT-116 and MCF-7; read-out: Average IC50 (GI50). An excerpt: The MTT assay[53,54] was employed to evaluate the antiproliferative efficacy of new compounds 8a–l against two human cancer cell lines: MCF-7 (breast) and HCT-116 (colorectal carcinoma). Erlotinib was employed as the benchmark. Check Appendix A for additional experimental information.
The MTT assay[53,54] was used to evaluate the antiproliferative properties of novel compounds 8a–l against two human cancer cell lines: MCF-7 (breast cancer) and HCT-116 (colorectal carcinoma). Erlotinib was utilized as the reference. […] The provided values represent the means of three experiments ± standard deviation (SD).

Where “and” joins values, the source holds several entries; their conditions need not be identical. Equal values may be shown once.

With `CCS(=O)(=O)c1ccc2[nH]nc(C(=O)NNC(=O)NC34CC5CC(CC(C5)C3)C4)c2c1` [Compound 8g, 2-(5-(Ethylsulfonyl)-1H-indazole-3-carbonyl)-N-(adamantan-1-yl)hydrazine-1-carboxamide], in data set [1], the viability at 4 days, 50 µM is 91%. This molecule showed a Bcl-2 level in data set [2] of 1.60 ± 0.001 ng/mL. Besides, in data set [3], the “Caspase-8 Conc.” value is 1.80 ± 0.10 ng/mL; the Caspase-8 fold change was 18 fold and 18.00 fold. Moreover, the midpoint of inhibition in data set [4], the IC50, lay at 71 ± 5 nM. For the same molecule, in data set [5], the “Selectivity index (SI), HCT-116” value is above 6.0; the “Selectivity index (SI), MCF-7” value is above 5.0; the IC50 is above 150 nM. Also, the p53 level in data set [6] amounted to 320 ± 2 pg/mL. Moreover, in data set [7], the “Caspase-9 Conc.” value came out at 21 ± 3 ng/mL and the Caspase-9 fold change is recorded as 21 fold. Also, the IC50 in data set [8] was 26 nM.
Turning to `CCS(=O)(=O)c1ccc2[nH]nc(C(=O)NNC(=O)NC3CCCCCC3)c2c1` [Compound 8h, 2-(5-(Ethylsulfonyl)-1H-indazole-3-carbonyl)-N-(cycloheptyl)hydrazine-1-carboxamide], the viability at 4 days, 50 µM in data set [1] amounted to 90%. The Bcl-2 level in data set [2] worked out at 1.30 ± 0.001 ng/mL. This molecule registered a Bcl-2 fold reduction in data set [2] (relative to untreated control) of 3.90 fold. Besides, in data set [3], the “Caspase-8 Conc.” value amounted to 2.15 ± 0.20 ng/mL; the Caspase-8 fold change is 21 fold and 21.50 fold. The molecule further displayed a 50% inhibitory concentration (IC50) in data set [4] of 68 ± 5 nM. For the same molecule, in data set [5], the “Selectivity index (SI), HCT-116” value was above 6.5; the “Selectivity index (SI), MCF-7” value is given as above 6.0; the IC50 was above 150 nM. In data set [6], this molecule yielded a p53 level of 355 ± 2 pg/mL. In data set [7], the “Caspase-9 Conc.” value was 23 ± 1 ng/mL and the Caspase-9 fold change is on record as 23 fold. The IC50 in data set [8] is 24 nM.
